According to patent publication US20250353848A1, “HETEROCYCLIC PAD4 INHIBITORS” (Celgene Corporation, priority 2022, published 2025):

Biological target: hPAD4 enzyme (Homo sapiens, UniProt Q9UM07)
Test: RFMS Assay 1 (rapid-fire mass spectrum PAD4 inhibition assay, BAEE substrate)
Assay type: biochemical
Conditions: 5 nM hPAD4 enzyme, 250 μM BAEE, 30 mins compound and enzyme preincubation at 37° C., 90 min enzyme/substrate reaction
Method: Compounds were solubilized in 100% DMSO to achieve a 10 mM compound concentration. Compound stock solutions were stored at RT. A series of dilutions were prepared in DMSO and mixed 8 times with 20 μL mixing volume. Final top concentration of compound in the assay is 50 μM. Final assay conditions were as follows: • Reaction volume: 26 μl • Assay buffer: 25 mM hepes, pH 7.5, 5 mM NaCl, 1 mM DTT, 0.2 mg/ml BSA, 0.01% CHAPS, 50 μM Calcium, and 5 μM TPEN • Final concentrations: 5 nM hPAD4 enzyme, 250 μM BAEE, and 0.5% DMSO • Total incubation time: 30 mins compound and enzyme preincubation at 37° C., 90 min enzyme/substrate reaction, 30 min reaction with phenyl glyoxal at 37° C. • Stop solution: 40 μl 5% TCA in ACN
0.13 μL of compound solution was added to 13 μL of 10 nM PAD4 in assay buffer. After 30 min 13 μl of 500 μM of BAEE was added in 25 mM hepes, pH 7.5, 5 mM NaCl, 1 mM DTT, 0.2 mg/ml BSA, 0.01% CHAPS, 50 µM Calcium, […] was added and the reaction incubated for 90 min at 37° C. The enzymatic reaction was quenched by addition of 15 μl of 6.1N TCA, 100% Final Concentration is 20%, 35 μl of 8.5 mM phenyl glyoxal (final concentration 4 mM) is then added and the reaction is incubated for 30 min at 37° C.
After 30 minutes the plates are spun down to remove all precipitate. The enzyme reaction was quenched with an equal volume of methanol containing internal standard (modified citrulline). Samples were loaded onto the Rapid Fire RF300 system (Agilent) wherein they were first sipped for 1000 ms and then directly loaded to a C18 separations cartridge using a mixture of acetonitrile containing 0.01% formic acid for 3000 ms desalting. The flow rate of the mobile phase was 1.5 ml/min. Once the samples were eluted from the cartridge, a mobile phase of acetonitrile containing 0.01% formic acid was used to move the samples into the mass spectrometer for 4000 ms at a flow rate of 1.25 ml/min/Sciex AP15500 triple quadrupole mass spectrometer (Applied Biosystems) equipped with ESI was used to analyze the peptidyl citrulline and internal standard ions.
MRM transition of product and internal standard were monitored at m/z 424.5 to 350.4 and m/z 293 to 247 respectively. The dwell time for each transition was set at 200 ms, and the ESI voltage was used at 5500 with a source temperature of 400° C. Extracted ion peaks for each transition were integrated using the Rapid Fire Integrator software. Peak area of analyte was normalized with internal standard.).

Chain of hPAD4 enzyme (Q9UM07 whole entry): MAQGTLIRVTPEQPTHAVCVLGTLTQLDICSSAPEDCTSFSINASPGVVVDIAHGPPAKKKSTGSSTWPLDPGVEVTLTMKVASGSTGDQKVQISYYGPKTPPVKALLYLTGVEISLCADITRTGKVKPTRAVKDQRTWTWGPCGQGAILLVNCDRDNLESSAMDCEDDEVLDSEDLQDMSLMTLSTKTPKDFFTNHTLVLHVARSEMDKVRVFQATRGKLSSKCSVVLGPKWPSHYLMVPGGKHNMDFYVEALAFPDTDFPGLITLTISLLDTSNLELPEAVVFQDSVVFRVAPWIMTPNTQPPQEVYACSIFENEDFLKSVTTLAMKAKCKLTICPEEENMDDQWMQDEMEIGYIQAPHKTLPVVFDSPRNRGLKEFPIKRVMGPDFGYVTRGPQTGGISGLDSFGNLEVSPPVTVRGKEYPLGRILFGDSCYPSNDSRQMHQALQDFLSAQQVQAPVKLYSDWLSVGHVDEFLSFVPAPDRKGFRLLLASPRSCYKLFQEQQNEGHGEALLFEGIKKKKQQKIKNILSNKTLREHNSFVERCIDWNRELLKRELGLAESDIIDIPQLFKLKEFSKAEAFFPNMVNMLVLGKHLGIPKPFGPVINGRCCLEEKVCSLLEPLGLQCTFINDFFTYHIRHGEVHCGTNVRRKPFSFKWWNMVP

Compared with `C[C@H](COc1nccc2cc(-c3nc4cc5c(nc4n3C)CCN(C[C@H](N)CF)C5=O)n(CC3CC3)c12)n1cnc(F)c1` [Example 83, 7-((S)-2-amino-3-fluoropropyl)-2-(1-(cyclopropylmethyl)-7-((R)-2-(4-fluoro-1H-imidazol-1-yl)propoxy)-1H-pyrrolo[2,3-c]pyridin-2-yl)-3-methyl-3,5,6,7-tetrahydro-8H-imidazo[4,5-b][1,6]naphthyridin-8-one], `C[C@@H](COc1cccc2cc(-c3nc4cc5c(nc4n3C)CCN(C[C@H](N)CF)C5=O)n(CC3CC3)c12)n1cnc(C#N)c1` [Example 87, 1-((S)-1-((2-(7-((S)-2-amino-3-fluoropropyl)-3-methyl-8-oxo-5,6,7,8-tetrahydro-3H-imidazo[4,5-b][1,6]naphthyridin-2-yl)-1-(cyclopropylmethyl)-1H-indol-7-yl)oxy)propan-2-yl)-1H-imidazole-4-carbonitrile] is higher in IC50: no more than 10 nM for the first, 11 to 100 nM for the second. The first is the more potent here.

`COc1cccc2cc(-c3nc4cc5c(nc4n3C)CCN(C[C@H](N)CF)C5=O)n(CCOC(F)F)c12` [Example 6, (S)-7-(2-amino-3-fluoropropyl)-2-(1-(2-(difluoromethoxy)ethyl)-7-methoxy-1H-indol-2-yl)-3-methyl-3,5,6,7-tetrahydro-8H-imidazo[4,5-b][1,6]naphthyridin-8-one] and `COc1cccc2cc(-c3nc4cc5c(nc4n3C)CCN(C[C@H](N)CF)C5=O)n(CC3CC3(F)F)c12` (stereo partly drawn) [Example 4, 7-((S)-2-amino-3-fluoropropyl)-2-(1-((2,2-difluorocyclopropyl)methyl)-7-methoxy-1H-indol-2-yl)-3-methyl-3,5,6,7-tetrahydro-8H-imidazo[4,5-b][1,6]naphthyridin-8-one] fall in the same range of IC50: 101 to 500 nM for the first, 101 to 500 nM for the second.

`Cn1c(-c2cc3cccc(OC(F)Cn4cnc(F)c4)c3n2CC2CC2)nc2cc3c(nc21)CCN(C[C@H](N)CF)C3=O` (single isomer, unassigned) [Example 73a] and `C[C@H](Cn1cnc(F)c1)Oc1cccc2cc(-c3nc4cc5c(nc4n3C)CCN(C[C@H](N)CF)C5=O)n(CC3CC3)c12` [Example 67, 7-((S)-2-amino-3-fluoropropyl)-2-(1-(cyclopropylmethyl)-7-(((R)-1-(4-fluoro-1H-imidazol-1-yl)propan-2-yl)oxy)-1H-indol-2-yl)-3-methyl-3,5,6,7-tetrahydro-8H-imidazo[4,5-b][1,6]naphthyridin-8-one] cannot be ordered by IC50: no more than 10 nM for the first, no more than 10 nM for the second.

`CC(C(F)Oc1cccc2cc(-c3nc4cc5c(nc4n3C)CCN(C[C@H](N)CF)C5=O)n(CC3CC3)c12)n1ccnc1` (single isomer, unassigned) [Example 78a] and `Cn1c(-c2cc3cccc(OCC(F)n4ccnc4)c3n2CC2CC2)nc2cc3c(nc21)CCN(C[C@H](N)CF)C3=O` (single isomer, unassigned) [Example 79b] fall in the same range of IC50: 11 to 100 nM for the first, 11 to 100 nM for the second.

First: CC(C(F)Oc1cccc2cc(-c3nc4cc5c(nc4n3C)CCN(C[C@H](N)CF)C5=O)n(CC3CC3)c12)n1ccnc1 (single isomer, unassigned) [Example 78b]
Second: C[C@H](Cn1cncc1F)Oc1cccc2cc(-c3nc4cc5c(nc4n3C)CCN(C[C@H](N)CF)C5=O)n(CC3CC3)c12 [Example 69, 7-((S)-2-amino-3-fluoropropyl)-2-(1-(cyclopropylmethyl)-7-(((R)-1-(5-fluoro-1H-imidazol-1-yl)propan-2-yl)oxy)-1H-indol-2-yl)-3-methyl-3,5,6,7-tetrahydro-8H-imidazo[4,5-b][1,6]naphthyridin-8-one]
The IC50 of the first is lower: no more than 10 nM for the first, 11 to 100 nM for the second.

First: Cn1c(-c2cc3cccc(OCC(O)c4cnco4)c3n2CC2CC2)nc2cc3c(nc21)CCN(C[C@H](N)CF)C3=O (single isomer, unassigned) [Example 61b]
Second: CC(COc1cccc2cc(-c3nc4cc5c(nc4n3C)CCN(C[C@H](N)CF)C5=O)n(CC3CC3)c12)c1cccnc1 (single isomer, unassigned) [Example 45a]
The IC50 of the first is higher: 101 to 500 nM for the first, no more than 10 nM for the second. The second is the more potent here.

First: Cn1c(-c2cc3cccc(OCCn4ccnc4C#N)c3n2CC2CC2)nc2cc3c(nc21)CCN(C[C@H](N)CF)C3=O [Example 89, (S)-1-(2-((2-(7-(2-amino-3-fluoropropyl)-3-methyl-8-oxo-5,6,7,8-tetrahydro-3H-imidazo[4,5-b][1,6]naphthyridin-2-yl)-1-(cyclopropylmethyl)-1H-indol-7-yl)oxy)ethyl)-1H-imidazole-2-carbonitrile]
Second: Cn1cc(CCOc2cccc3cc(-c4nc5cc6c(nc5n4C)CCN(C[C@H](N)CF)C6=O)n(CC4CC4)c23)cn1 [Example 51, (S)-7-(2-amino-3-fluoropropyl)-2-(1-(cyclopropylmethyl)-7-(2-(1-methyl-1H-pyrazol-4-yl)ethoxy)-1H-indol-2-yl)-3-methyl-3,5,6,7-tetrahydro-8H-imidazo[4,5-b][1,6]naphthyridin-8-one]
The IC50 of the first is higher: 101 to 500 nM for the first, no more than 10 nM for the second.

Compared with `CC(C(F)Oc1cccc2cc(-c3nc4cc5c(nc4n3C)CCN(C[C@H](N)CF)C5=O)n(CC3CC3)c12)n1ccnc1` (single isomer, unassigned) [Example 78c], `C[C@@H](Cn1cncc1F)Oc1cccc2cc(-c3nc4cc5c(nc4n3C)CCN(C[C@H](N)CF)C5=O)n(CC3CC3)c12` [Example 68, 7-((S)-2-amino-3-fluoropropyl)-2-(1-(cyclopropylmethyl)-7-(((S)-1-(5-fluoro-1H-imidazol-1-yl)propan-2-yl)oxy)-1H-indol-2-yl)-3-methyl-3,5,6,7-tetrahydro-8H-imidazo[4,5-b][1,6]naphthyridin-8-one] is higher in IC50: 11 to 100 nM for the first, 101 to 500 nM for the second.

First: CN1C[C@H](COc2cccc3cc(-c4nc5cc6c(nc5n4C)CCN(C[C@H](N)CF)C6=O)n(CC4CC4)c23)CS1(=O)=O [Example 53, 7-((S)-2-amino-3-fluoropropyl)-2-(1-(cyclopropylmethyl)-7-(((R)-2-methyl-1,1-dioxidoisothiazolidin-4-yl)methoxy)-1H-indol-2-yl)-3-methyl-3,5,6,7-tetrahydro-8H-imidazo[4,5-b][1,6]naphthyridin-8-one]
Second: COC(=O)N1CC[C@@H](Oc2cccc3cc(-c4nc5cc6c(nc5n4C)CCN(C[C@H](N)CF)C6=O)n(CC4CC4)c23)C1 [Example 40, methyl (R)-3-((2-(7-((S)-2-amino-3-fluoropropyl)-3-methyl-8-oxo-5,6,7,8-tetrahydro-3H-imidazo[4,5-b][1,6]naphthyridin-2-yl)-1-(cyclopropylmethyl)-1H-indol-7-yl)oxy)pyrrolidine-1-carboxylate]
The IC50 of the first is higher: 101 to 500 nM for the first, 11 to 100 nM for the second. The second is the more potent here.

First: CC(COc1cccc2cc(-c3nc4cc5c(nc4n3C)CCN(C[C@H](N)CF)C5=O)n(CC3CC3)c12)c1cccnc1 (single isomer, unassigned) [Example 45b]
Second: Cn1c(-c2cc3cccc(OCCc4ccncc4)c3n2CC2CC2)nc2cc3c(nc21)CCN(C[C@H](N)CF)C3=O [Example 57, (S)-7-(2-amino-3-fluoropropyl)-2-(1-(cyclopropylmethyl)-7-(2-(pyridin-4-yl)ethoxy)-1H-indol-2-yl)-3-methyl-3,5,6,7-tetrahydro-8H-imidazo[4,5-b][1,6]naphthyridin-8-one]
The IC50 of the first is lower: no more than 10 nM for the first, 11 to 100 nM for the second. The first is the more potent here.

First: COc1cccc2cc(-c3nc4cc5c(nc4n3C)CCN(C[C@@H](C)N)C5=O)n(Cc3ncco3)c12 [Example 25, (R)-7-(2-aminopropyl)-2-(7-methoxy-1-(oxazol-2-ylmethyl)-1H-indol-2-yI)-3-methyl-3,5,6,7-tetrahydro-8H-imidazo[4,5-b][1,6]naphthyridin-8-one]
Second: Cn1c(-c2cc3cccc(OCCc4cn[nH]c4)c3n2CC2CC2)nc2cc3c(nc21)CCN(C[C@H](N)CF)C3=O [Example 50, (S)-2-(7-(2-(1H-pyrazol-4-yl)ethoxy)-1-(cyclopropylmethyl)-1H-indol-2-yl)-7-(2-amino-3-fluoropropyl)-3-methyl-3,5,6,7-tetrahydro-8H-imidazo[4,5-b][1,6]naphthyridin-8-one]
The IC50 of the first is higher: 101 to 500 nM for the first, no more than 10 nM for the second. The second is the more potent here.

Compared with `Cc1nnc(CCOc2cccc3cc(-c4nc5cc6c(nc5n4C)CCN(C[C@H](N)CF)C6=O)n(CC4CC4)c23)s1` [Example 55, (S)-7-(2-amino-3-fluoropropyl)-2-(1-(cyclopropylmethyl)-7-(2-(5-methyl-1,3,4-thiadiazol-2-yl)ethoxy)-1H-indol-2-yl)-3-methyl-3,5,6,7-tetrahydro-8H-imidazo[4,5-b][1,6]naphthyridin-8-one], `CC(C(F)Oc1cccc2cc(-c3nc4cc5c(nc4n3C)CCN(C[C@H](N)CF)C5=O)n(CC3CC3)c12)n1ccnc1` (single isomer, unassigned) [Example 78d] is lower in IC50: 101 to 500 nM for the first, 11 to 100 nM for the second.
